According to patent EP0689839A2, “Use of inhibitors of adenosine triphosphatase for the manufacture of a medicament for the treatment of disorders anociated with beta-amyloid peptide” (ELI LILLY AND COMPANY, priority 1994, dated 1996):
Several values for one entry are separate records, joined by “and”; a condition that tells them apart may be missing. Equal values may be shown once.

Experiments:
β-amyloid peptide [1] = assay: β-Amyloid Peptide Production Inhibition (Cellular Assay), ELISA of conditioned media; format: cell-based; conditions: normalized for cytotoxicity (MTT)
Description: (§1) Two cell lines (human kidney cell line 293 and Chinese hamster ovary cell line CHO) were stably transfected with the gene for APP751 containing the double mutation Lys₆₅₁-Met₆₅₂ to Asn₆₅₁-Leu₆₅₂ (APP-751 numbering) commonly called the Swedish mutation using the method described in Citron, et al., Nature (London), 360:672-674 (1992). The transfected cell lines were designated as 293 751 SWE and CHO 751 SWE, and were plated in Corning 96 well plates at 2.5 x 10⁴ or 1 x 10⁴ cells per well respectively in Dulbecco's […] essential media (DMEM) plus 10% fetal bovine serum. Following overnight incubation at 37°C in an incubator equilibrated with 10% carbon dioxide (CO₂) and humidified air, the media were removed and replaced with 200 µl per well of media containing a macrolide. After a two hour pretreatment period, the media were again removed and replaced with fresh media containing the test compound and the cells were incubated for an additional two hours.
After treatment, plates were centrifuged at 1200 x g for five minutes at room temperature to pellet cellular debris from the conditioned media. From each well, 100 µl of conditioned media were transferred into an ELISA plate precoated with antibody 266 against βamyloid peptide(13-28) (Seubert et al., supra.) and stored at 4°C overnight. An ELISA assay employing labelled antibody 6C6 (against β-amyloid peptide-1-16) was run the next day to measure the amount of β-amyloid peptide produced.
The results of the β-amyloid peptide ELISA were fit to a standard curve and expressed as ng/ml β-amyloid peptide. In order to normalize for cytotoxicity, these β-amyloid peptide results were divided by the MTT results and expressed as a percentage of the results from a drug-free control.

[2] = test system: 293 751 SWE and CHO 751 SWE; assay: Cytotoxic effects / cellular viability by MTT in the cellular assay; format: cell-based
Description: as §1
Cytotoxic effects of the compounds were measured by a modification of the method of Hansen, et al., Journal of Immununological Methods, 119:203-210 (1989). […] The difference in the OD562nm and the OD650nm was measured in a UVmax microplate reader as an indicator of the cellular viability.

[3] = test system: human fetal primary cortical cultures; assay: Cytotoxicity in human fetal primary cortical cultures; format: cell-based; conditions: 1 µM
β-amyloid peptide [4] = assay: β-amyloid peptide production in human fetal primary cortical cultures (ELISA); format: cell-based; conditions: 1 µM; twenty four hour-conditioned medium; endogenous amyloid precursor protein
Description: In order to better understand this phenomenon, human fetal primary cortical cultures, which secrete β-amyloid peptide as a result of endogenous amyloid precursor protein processing, were treated with 1 µM bafilomycin. Twenty four hour-conditioned medium was collected and evaluated using enzyme-linked immunosorbent assay (ELISA).

vacuolar ATPases = conditions: relative to other bafilomycins; cited from earlier work
[5] = 1 µg/ml, read-out: Percent Inhibition

For `CO/C1=C\C(C)=C\C(C)C(O)C(C)C/C(C)=C/C=C/C(OC)C(C(C)C(O)C(C)C2(O)CC(O)C(C)C(C(C)C)O2)OC1=O` (stereo not shown) [Bafilomycin A₁, bafilomycin A₁], the “Percent Inhibition” value (β-amyloid peptide [1]; 0.3 µM) was 91 ± 1% and 92 ± 1% and the inhibition at 0.3 µM (β-amyloid peptide [1]; 0.3 µM, read-out: Percent Inhibition) was 90 ± 2%.

For `CO/C1=C\C(C)=C\C(C)C(O)C(C)C/C(C)=C/C=C/C(OC)C(C(C)C(O)C(C)C2(O)CC(OC(=O)/C=C/C(=O)O)C(C)C(C(C)C)O2)OC1=O` (stereo not shown) [Bafilomycin C₁], the inhibition at 1 µg/mL (β-amyloid peptide [1]; [5]) was 90 ± 2%.

`CO/C1=C\C(C)=C\C(C)C(O)C(C)C/C(C)=C/C=C/C(OC)C(C(C)C(O)C(C)C(=O)/C=C/C(C)C(O)C(C)C)OC1=O` (stereo not shown) [Bafilomycin D, bafilomycin D] gave an inhibition at 1 µg/mL (β-amyloid peptide [1]; [5]) of 4 ± 3%.

In the case of `C/C=C/[C@H]1O[C@@](O)([C@@H](C)[C@H](O)[C@H](C)[C@H]2OC(=O)/C(OC)=C/C(C)=C/[C@@H](C)[C@@H](O)[C@@H](CC)[C@@H](O)[C@H](C)C/C(C)=C/C=C/[C@@H]2OC)C[C@@H](O[C@H]2C[C@@H](O)[C@H](OC(N)=O)[C@@H](C)O2)[C@@H]1C` [Concanamycin A, concanamycin A], the “Percent Inhibition” value (β-amyloid peptide [1]; 1.2 µM) is reported as 74 ± 4% and the “Percent Viability” value ([2]; 1.2 µM) is reported as 97%.

In the case of `CO/C1=C\C(C)=C\[C@@H](C)[C@@H](O)[C@@H](C)C/C(C)=C/C=C/[C@H](OC)[C@@H]([C@@H](C)[C@@H](O)[C@H](C)[C@@]2(O)C[C@@H](O)[C@H](C)[C@@H](C(C)C)O2)OC1=O` [bafilomycin], the cytotoxicity [3] is reported as “no cytotoxicity was observed” and the “inhibition of β-amyloid peptide production” value (β-amyloid peptide [4]) is reported as “Greater than 75%”.

With Bafilomycin B₁ the “Percent Inhibition” value (β-amyloid peptide [1]; 1 µg/ml) was 87 ± 1%.

For bafilomycin A₁, the “Percent Viability” value ([2]; 0.3 µM) was 112% and 99% and 102%.

For bafilomycin D, the “poorer inhibitor of vacuolar ATPases than other bafilomycins, especially bafilomycin A1” value (vacuolar ATPases) is given as roughly 40 fold.

For elaiophyline, the “Percent Inhibition” value (β-amyloid peptide [1]; 0.6 µM) was 98 ± 2%, the “Percent Inhibition” value (β-amyloid peptide [1]; 1.2 µM) was 100 ± 1% and the “Percent Inhibition” value (β-amyloid peptide [1]; 2.4 µM) was 100 ± 2%. For the same molecule, the “Percent Inhibition” value (β-amyloid peptide [1]; 4.9 µM) was 100 ± 1% and the “Percent Inhibition” value (β-amyloid peptide [1]; 9.8 µM) was 100 ± 1% and 131 ± 1%.
